Source: US9302999B2, “Substituted triazoles as herbicides” (E. I. DU PONT DE NEMOURS AND COMPANY, priority 2012, dated 2016)

Assays:
[1] = system: waterhemp (common waterhemp, Amaranthus rudis); experiment: Test F pre-/postemergence: waterhemp; assay type: in vivo
Excerpt: (§1) Seeds of plant species selected from corn (Zea mays), soybean (Glycine max), velvetleaf (Abutilon theophrasti), lambsquarters (Chenopodium album), poinsettia, wild (wild poinsettia, Euphorbia heterophylla), pigweed, palmer (palmer pigweed, Amaranthus palmeri), waterhemp (common waterhemp, Amaranthus rudis), surinam grass (Brachiaria decumbens), crabgrass, Brazil (Brazilian crabgrass, Digitaria horizontalis), panicum, fall (fall panicum Panicum dichotomiflorum), crabgrass, large (large crabgrass, Digitaria sanguinalis), foxtail, giant (giant foxtail, Setaria faberii), foxtail, green (green foxtail Setaria viridis), goosegrass (Eleusine indica), ragweed (common ragweed, Ambrosia elatior), barnyardgrass (Echinochloa crus-galli), sandbur (southern sandbur, Cenchrus echinatus), arrowleaf sida (Sida rhombifolia), ryegrass, Italian (Italian ryegrass, Lolium multiflorum), dayflower, VA (Virginia (VA) dayflower, Commelina virginica), field bindweed (Convolvulus arvensis), cocklebur (common cocklebur, Xanthium strumarium), morningglory (Ipomoea coccinea), nightshade (eastern black nightshade, Solanum ptycanthum), kochia (Kochia scoparia), nutsedge, yellow (yellow nutsedge, Cyperus esculentus), johnsongrass (Sorghum halepense), smartweed (ladysthumb smartweed, Polygonum persicaria), and beggarticks (hairy beggarticks, Bidens pilosa), were planted into a silt loam soil and treated preemergence with test chemicals formulated in a non-phytotoxic solvent mixture which included a surfactant. At the same time, plants selected from these crop and weed species and also pigweed (Amaranthus retroflexus), waterhemp_RES1 (ALS/Triazine resistant common waterhemp, Amaranthus rudis) and waterhemp_RES2 (ALS/HPPD resistant common waterhemp, Amaranthus rudis) were planted in pots containing a planting medium comprising spaghnum peat moss, vermiculite, wetting agent and starter nutrients treated with postemergence applications of some of the test chemicals formulated in the same manner. Plants ranged in height from 2 to 18 cm for postemergence treatments (1- to 4-leaf stage).
(§2) Treated plants and controls were maintained in a greenhouse for 14 to 21 days, after which time all species were compared to controls and visually evaluated. Plant response ratings, summarized in Table E, are based on a scale of 0 to 100 where 0 is no effect and 100 is complete control. A dash (-) response means no test result.

[2] = system: johnsongrass (Sorghum halepense); experiment: Test F pre-/postemergence: johnsongrass; assay type: in vivo; details: Preemergence
Excerpt: as §1, §2

[3] = system: crabgrass, large (large crabgrass, Digitaria sanguinalis); experiment: Test F pre-/postemergence: crabgrass, large; assay type: in vivo; details: Preemergence
Excerpt: as §1, §2

[4] = system: ryegrass, Italian (Italian ryegrass, Lolium multiflorum); experiment: Test F pre-/postemergence: ryegrass, Italian; assay type: in vivo
Excerpt: as §1, §2

[5] = system: pigweed, palmer (palmer pigweed, Amaranthus palmeri); experiment: Test F pre-/postemergence: pigweed, palmer; assay type: in vivo
Excerpt: as §1, §2

[6] = system: crabgrass, Brazil (Brazilian crabgrass, Digitaria horizontalis); experiment: Test F pre-/postemergence: crabgrass, Brazil; assay type: in vivo
Excerpt: as §1, §2

[7] = system: Oilseed Rape; experiment: Test C preemergence: oilseed rape; assay type: in vivo; details: scale of 0 to 100, 0 is no effect, 100 is complete control
Excerpt: (§3) Seeds of plant species selected from blackgrass (Alopecurus myosuroides), bromegrass, downy (downy bromegrass, Bromus tectorum), foxtail, green (green foxtail, Setaria viridis), ryegrass, Italian (Italian ryegrass, Lolium multiflorum), winter wheat (Triticum aestivum), wild oat (Avena fatua), galium (catchweed bedstraw, Galium aparine), bermudagrass (Cynodon dactylon), surinam grass (Brachiaria decumbens), cocklebur (common cocklebur, Xanthium strumarium), corn (Zea mays), large crabgrass (Digitaria sanguinalis), woolly cupgrass (Eriochloa villosa), foxtail, giant (giant foxtail, Setaria faberii), goosegrass (Eleusine indica), johnsongrass (Sorghum halepense), kochia (Kochia scoparia), lambsquarters (Chenopodium album), morningglory (Ipomoea coccinea), nightshade (eastern black nightshade, Solanum ptycanthum), nutsedge, yellow (yellow nutsedge, Cyperus esculentus), pigweed (Amaranthus retroflexus), ragweed (common ragweed, Ambrosia elation), soybean (Glycine max), common (oilseed) sunflower (Helianthus annuus), Russian thistle (Salsola kali) and velvetleaf (Abutilon theophrasti) were planted into a blend of loam soil and sand and treated preemergence with test chemicals formulated in a non-phytotoxic solvent mixture which included a surfactant.
as §2, with “13” for “14”, “15” for “21”, “C,” for “E,”

[8] = system: Barnyardgrass; experiment: Test C postemergence: barnyardgrass; assay type: in vivo, Echinochloa crus-galli; details: 125 g ai/ha, scale 0 to 100, 0 no effect, 100 complete control
Excerpt: as §3
At the same time, plants selected from these crop and weed species and also barley (winter barley, Hordeum vulgare), canarygrass (Phalaris minor), chickweed (common chickweed, Stellaria media) windgrass (Apera spica-venti) and deadnettle (henbit deadnettle, Lamium amplexicaule) were planted in pots containing Redi-Earth® planting medium (Scotts Company, 14111 Scottslawn Road, Marysville, Ohio 43041) comprising spaghnum peat moss, vermiculite, wetting agent and starter nutrients and treated with postemergence applications of test chemicals formulated in the same manner. Plants ranged in height from 2 to 18 cm (1- to 4-leaf stage) for postemergence treatments.
as §2, with “13” for “14”, “15” for “21”, “C,” for “E,”

[9] = Preemergence, 16 g ai/ha, scale 0 to 100 (0 no effect, 100 complete control)
[10] = Preemergence, 31 g ai/ha, scale 0 to 100 (0 no effect, 100 complete control)
[11] = Preemergence, 125 g ai/ha, scale 0 to 100
[12] = 16 g ai/ha, scale 0 to 100 (0 no effect, 100 complete control)
[13] = 31 g ai/ha, scale 0 to 100 (0 no effect, 100 complete control)
[14] = Postemergence, 8 g ai/ha, scale 0 to 100
[15] = Postemergence, 16 g ai/ha, scale 0 to 100
[16] = Postemergence, 31 g ai/ha, scale 0 to 100
[17] = Postemergence, 62 g ai/ha, scale 0 to 100
[18] = Postemergence, 125 g ai/ha, scale 0 to 100
[19] = Preemergence, 250 g ai/ha, scale 0 to 100
[20] = Preemergence, 62 g ai/ha, scale 0 to 100
[21] = Postemergence, 4 g ai/ha, scale 0 to 100
[22] = Preemergence, 4 g ai/ha, scale 0 to 100, 0 no effect, 100 complete control
[23] = Preemergence, 8 g ai/ha, scale 0 to 100, 0 no effect, 100 complete control
[24] = 8 g ai/ha, scale 0 to 100, 0 no effect, 100 complete control

Fc1ccc(-n2nc(Cc3ccnc(C(F)(F)F)c3)c(OCC(F)(F)F)n2)cc1 [Compound 142]
Plant response rating, Waterhemp [1, 9]: 98 | Plant response rating, Waterhemp [1, 10]: 98 | Plant response rating, Waterhemp [1, 11]: 100 | Plant response rating, Johnsongrass [2, 12]: 0 | Plant response rating, Johnsongrass [2, 13]: 5 | Plant response rating, Johnsongrass ([2]; 125 g ai/ha, scale 0 to 100): 30 | Plant response rating, Crabgrass, Large [3, 13]: 20 | Plant response rating, Crabgrass, Large ([3]; 62 g ai/ha, scale 0 to 100): 98 | Plant response rating, Crabgrass, Large ([3]; 125 g ai/ha, scale 0 to 100): 100 | Plant response rating, Ryegrass, Italian [4, 9]: 5 | Plant response rating, Ryegrass, Italian [4, 10]: 65 | Plant response rating, Ryegrass, Italian [4, 11]: 100

Cc1nn(-c2ccc(F)c(F)c2)nc1Oc1ccnc(C(F)(F)F)c1 [Compound 145]
Plant response rating, Waterhemp [1, 14]: 90 | Plant response rating, Waterhemp [1, 15]: 90 | Plant response rating, Waterhemp [1, 16]: 95 | Plant response rating, Waterhemp [1, 17]: 95 | Plant response rating, Waterhemp [1, 18]: 95 | Plant response rating, Pigweed, Palmer [5, 14]: 40 | Plant response rating, Pigweed, Palmer [5, 15]: 70 | Plant response rating, Pigweed, Palmer [5, 17]: 85 | Plant response rating, Pigweed, Palmer [5, 18]: 90 | Plant response rating, Crabgrass, Brazil [6, 14]: 15 | Plant response rating, Crabgrass, Brazil [6, 15]: 25 | Plant response rating, Crabgrass, Brazil [6, 16]: 40 | Plant response rating, Crabgrass, Brazil [6, 17]: 40 | Plant response rating, Crabgrass, Brazil [6, 18]: 50 | Plant response rating, Ryegrass, Italian [4, 14]: 5 | Plant response rating, Ryegrass, Italian [4, 15]: 10 | Plant response rating, Ryegrass, Italian [4, 16]: 20 | Plant response rating, Ryegrass, Italian [4, 17]: 30 | Plant response rating, Ryegrass, Italian [4, 18]: 40

CCCc1nn(-c2ccc(F)cc2)nc1Cc1ccnc(C(F)(F)F)c1 [Compound 153]
Plant response rating, Oilseed Rape ([7]; 31 g ai/ha): 90 | Plant response rating, Oilseed Rape ([7]; 62 g ai/ha): 95 | Plant response rating, Waterhemp [1, 9]: 65 | Plant response rating, Waterhemp [1, 10]: 100 | Plant response rating, Waterhemp [1, 11]: 100 | Plant response rating, Waterhemp [1, 19]: 100 | Plant response rating, Pigweed, Palmer [5, 9]: 98 | Plant response rating, Pigweed, Palmer [5, 10]: 100 | Plant response rating, Pigweed, Palmer [5, 11]: 100 | Plant response rating, Pigweed, Palmer [5, 19]: 100 | Plant response rating, Johnsongrass [2, 12]: 0 | Plant response rating, Johnsongrass [2, 13]: 10 | Plant response rating, Johnsongrass ([2]; 62 g ai/ha, scale 0 to 100): 50 | Plant response rating, Johnsongrass ([2]; 125 g ai/ha, scale 0 to 100): 100 | Plant response rating, Johnsongrass ([2]; 250 g ai/ha, scale 0 to 100): 100 | Plant response rating, Crabgrass, Brazil [6, 9]: 98 | Plant response rating, Crabgrass, Brazil [6, 10]: 100 | Plant response rating, Crabgrass, Brazil [6, 20]: 100 | Plant response rating, Crabgrass, Brazil [6, 11]: 100 | Plant response rating, Crabgrass, Brazil [6, 19]: 100 | Plant response rating, Crabgrass, Large [3, 12]: 80 | Plant response rating, Crabgrass, Large [3, 13]: 95 | Plant response rating, Crabgrass, Large ([3]; 62 g ai/ha, scale 0 to 100): 100 | Plant response rating, Crabgrass, Large ([3]; 125 g ai/ha, scale 0 to 100): 100 | Plant response rating, Crabgrass, Large ([3]; 250 g ai/ha, scale 0 to 100): 100 | Plant response rating, Barnyardgrass [8]: 45 | Plant response rating, Ryegrass, Italian [4, 9]: 5 | Plant response rating, Ryegrass, Italian [4, 10]: 5 | Plant response rating, Ryegrass, Italian [4, 11]: 65 | Plant response rating, Ryegrass, Italian [4, 19]: 95

Cc1nn(-c2ccc(C(F)(F)F)c(F)c2)nc1Cc1ccnc(C(F)(F)F)c1 [Compound 162]
Plant response rating, Oilseed Rape ([7]; 31 g ai/ha): 80 | Plant response rating, Oilseed Rape ([7]; 62 g ai/ha): 100 | Plant response rating, Waterhemp [1, 21]: 80 | Plant response rating, Waterhemp [1, 14]: 90 | Plant response rating, Waterhemp [1, 15]: 90 | Plant response rating, Waterhemp [1, 16]: 95 | Plant response rating, Waterhemp [1, 17]: 95 | Plant response rating, Waterhemp [1, 22]: 50 | Plant response rating, Waterhemp [1, 23]: 85 | Plant response rating, Waterhemp [1, 9]: 90 | Plant response rating, Waterhemp [1, 10]: 100 | Plant response rating, Pigweed, Palmer [5, 21]: 70 | Plant response rating, Pigweed, Palmer [5, 14]: 70 | Plant response rating, Pigweed, Palmer [5, 15]: 80 | Plant response rating, Pigweed, Palmer [5, 16]: 90 | Plant response rating, Pigweed, Palmer [5, 17]: 90 | Plant response rating, Pigweed, Palmer [5, 22]: 0 | Plant response rating, Pigweed, Palmer [5, 23]: 25 | Plant response rating, Pigweed, Palmer [5, 9]: 98 | Plant response rating, Pigweed, Palmer [5, 10]: 100 | Plant response rating, Johnsongrass ([2]; 4 g ai/ha, scale 0 to 100, 0 no effect, 100 complete control): 20 | Plant response rating, Johnsongrass [2, 24]: 20 | Plant response rating, Johnsongrass [2, 12]: 20 | Plant response rating, Johnsongrass [2, 13]: 20 | Plant response rating, Johnsongrass ([2]; 62 g ai/ha, scale 0 to 100): 20 | Plant response rating, Crabgrass, Brazil [6, 21]: 15 | Plant response rating, Crabgrass, Brazil [6, 14]: 15 | Plant response rating, Crabgrass, Brazil [6, 15]: 15 | Plant response rating, Crabgrass, Brazil [6, 16]: 20 | Plant response rating, Crabgrass, Brazil [6, 17]: 30 | Plant response rating, Crabgrass, Brazil [6, 22]: 0 | Plant response rating, Crabgrass, Brazil [6, 23]: 100 | Plant response rating, Crabgrass, Brazil [6, 9]: 100 | Plant response rating, Crabgrass, Brazil [6, 10]: 100 | Plant response rating, Crabgrass, Brazil [6, 20]: 100 | Plant response rating, Crabgrass, Large [3, 24]: 0 | Plant response rating, Crabgrass, Large [3, 12]: 0 | Plant response rating, Crabgrass, Large [3, 13]: 95 | Plant response rating, Crabgrass, Large ([3]; 62 g ai/ha, scale 0 to 100): 100 | Plant response rating, Barnyardgrass [8]: 90 | Plant response rating, Ryegrass, Italian [4, 21]: 0 | Plant response rating, Ryegrass, Italian [4, 14]: 0 | Plant response rating, Ryegrass, Italian [4, 15]: 0 | Plant response rating, Ryegrass, Italian [4, 16]: 0 | Plant response rating, Ryegrass, Italian [4, 17]: 0 | Plant response rating, Ryegrass, Italian [4, 22]: 0 | Plant response rating, Ryegrass, Italian [4, 23]: 0 | Plant response rating, Ryegrass, Italian [4, 9]: 35 | Plant response rating, Ryegrass, Italian [4, 10]: 80

CCc1nn(-c2ccc(F)cc2)nc1Oc1ccnc(C(F)(F)F)c1 [Compound 166]
Plant response rating, Oilseed Rape ([7]; 62 g ai/ha): 50 | Plant response rating, Barnyardgrass [8]: 45

CCCc1nn(-c2ccc(C(F)(F)F)c(F)c2)nc1Oc1ccnc(C(F)(F)F)c1 [Compound 185]
Plant response rating, Oilseed Rape ([7]; 62 g ai/ha): 85 | Plant response rating, Barnyardgrass [8]: 70

CCOc1nn(-c2ccc(Br)cc2)nc1Cc1ccnc(C(F)(F)F)c1 [Compound 189]
Plant response rating, Oilseed Rape ([7]; 62 g ai/ha): 70
